Our source for the EC50, RARα/RARβ ratio and RARγ/RARβ ratio values is US10752616B2, “Bicycloheteroaryl-heteroaryl-benzoic acid compounds as retinoic acid receptor beta (RARβ) agonists” (King's College London, priority 2014, dated 2020).

Holding throughout (assay type): cell-based
Assay [1] deals with RARβ (Mus musculus (Mouse), UniProt P22605). Put plainly: Transactivation assay for RARβ (gal4-RAR fusion, pFR-luc reporter, COS-7 cells), Table 2. The conditions noted are these: COS-7 reporter, mean of three or more determinations, species not stated (method: mouse or human). The procedure: (§1) Transcriptional transactivation assays were performed with gal4 fusion receptor constructs, created using each of the RAR ligand binding domains of either mouse or human, co-transfected with the pFR-luc (Stratagene) reporter construct in COS-7 cells.
(§2) Briefly, on day 1, 96 well plates were seeded with 8000 cells per well then left to recover overnight. On day 2, the cells were co-transfected with 100 ng of reporter plasmid and 10 ng of the appropriate receptor plasmid per well using lipofectamine (Invitrogen). On day 3, the lipofectamine containing media was replaced by a DMEM without phenol red, followed by the addition of test compound dissolved in 1 μL of DMSO to each well's 100 μL total volume. Finally, on day 4, the cells were lysed and their luciferase substrate was provided by the BrightGlo™ reagent (Promega), the plates were then read on the MicroBeta TriLux™ (Perkin Elmer).
(§3) Data for test compounds are quoted as EC50 values. Where replicate data has been generated, the data are quoted as the mean EC50 from the separate experiments.
(§4) EC50's values are reported as mean values of three or more determinations.

Assay [2] concerns the target RARα (Mus musculus (Mouse), UniProt P11416). Put plainly: Transactivation assay for RARα (gal4-RAR fusion, pFR-luc reporter, COS-7 cells), Table 2. As to conditions: for EC50: Table 2, COS-7 reporter, mean of three or more determinations, inactive = no agonist action at highest concentration tested; for RARα/RARβ ratio: fold-selectivity for RARβ over RARα, >1 = selective for RARβ. The procedure:
as §1, §2, §3, §4

The target in assay [3] is RARγ (Mus musculus (Mouse), UniProt P18911). Put plainly: Transactivation assay for RARγ (gal4-RAR fusion, pFR-luc reporter, COS-7 cells), Table 2. The conditions noted are these: for EC50: Table 2, COS-7 reporter, mean of three or more determinations, inactive = no agonist action at highest concentration tested; for RARγ/RARβ ratio: fold-selectivity for RARβ over RARγ, >1 = selective for RARβ. The procedure: as §1, §2, §3, §4
Sequence of RARγ (P18911 185-419): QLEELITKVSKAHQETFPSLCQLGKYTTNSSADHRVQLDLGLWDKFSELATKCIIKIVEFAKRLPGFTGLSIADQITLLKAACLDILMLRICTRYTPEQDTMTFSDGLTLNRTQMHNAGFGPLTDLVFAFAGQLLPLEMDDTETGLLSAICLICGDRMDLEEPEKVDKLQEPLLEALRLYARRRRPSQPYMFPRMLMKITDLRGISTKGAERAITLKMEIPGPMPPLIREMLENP

Sequence of RARα (P11416 183-417): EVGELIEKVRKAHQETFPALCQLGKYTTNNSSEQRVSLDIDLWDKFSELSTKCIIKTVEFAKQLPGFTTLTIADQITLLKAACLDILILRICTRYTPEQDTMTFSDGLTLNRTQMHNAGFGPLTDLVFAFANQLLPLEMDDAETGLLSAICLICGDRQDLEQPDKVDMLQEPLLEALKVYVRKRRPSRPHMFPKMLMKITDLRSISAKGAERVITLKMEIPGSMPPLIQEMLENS
Sequence of RARβ (P22605 210-444): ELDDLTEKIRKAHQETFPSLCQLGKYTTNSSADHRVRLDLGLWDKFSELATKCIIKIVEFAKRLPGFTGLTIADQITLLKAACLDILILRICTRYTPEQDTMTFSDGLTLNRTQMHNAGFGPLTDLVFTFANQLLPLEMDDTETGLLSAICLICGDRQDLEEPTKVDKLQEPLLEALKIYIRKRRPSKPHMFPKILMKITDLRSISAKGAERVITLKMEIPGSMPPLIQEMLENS

Broadly, the EC50 is the concentration giving half of the maximal effect. In assay [1], `Cc1ccc(C)c2c(C)c(-c3nc(-c4ccc(C(=O)O)cc4Cl)no3)oc12` [BHBA-009, 3-Chloro-4-(5-(3,4,7-trimethylbenzofuran-2-yl)-1,2,4-oxadiazol-3-yl)benzoic acid] yielded an EC50 of 0.0042 µM. Moreover, in assay [2], it took 0.032 µM to reach a half-maximal effect (EC50) and the RARα/RARβ ratio is recorded as 7.6. In assay [3], the EC50 was 0.011 µM and the RARγ/RARβ ratio is recorded as 2.6.
As for `Cc1ccc(C)c2sc(-c3nc(-c4ccc(C(=O)O)cc4)no3)nc12` [BHBA-027, 4-(5-(4,7-Dimethylbenzo[d]thiazol-2-yl)-1,2,4-oxadiazol-3-yl)benzoic acid], the figures for the EC50 in assay [1], in assay [2] and in assay [3] were 0.009 µM, 0.061 µM and 0.025 µM, respectively. Also, the RARα/RARβ ratio in assay [2] is 6.7. The RARγ/RARβ ratio in assay [3] came out at 2.7.
As to `Cc1cc(-c2nc(-c3cc4c(C)ccc(C)c4o3)ns2)ccc1C(=O)O` [BHBA-043, 4-(3-(4,7-Dimethylbenzofuran-2-yl)-1,2,4-thiadiazol-5-yl)-2-methylbenzoic acid], the EC50 came to 0.0052 µM in assay [1], 0.044 µM in assay [2] and 0.025 µM in assay [3].
In assay [1], `Cc1ccc(C)c2oc(-c3noc(-c4ccc(C(=O)O)cc4F)n3)cc12` [BHBA-030, 4-(3-(4,7-Dimethylbenzofuran-2-yl)-1,2,4-oxadiazol-5-yl)-3-fluorobenzoic acid] showed an EC50 of 0.01 µM. Moreover, in assay [2], the EC50 is 0.058 µM and the RARα/RARβ ratio was found to be 5.8. Moreover, in assay [3], the EC50 was 0.018 µM and the RARγ/RARβ ratio came out at 1.8.
For the molecule `Cc1ccc(Cl)c2oc(-c3nc(-c4ccc(C(=O)O)cc4Cl)no3)cc12` [BHBA-017, 3-Chloro-4-(5-(7-chloro-4-methylbenzofuran-2-yl)-1,2,4-oxadiazol-3-yl)benzoic acid], the midpoint of the response in assay [1], the EC50, lay at 0.0074 µM. Besides, in assay [2], the response was half-maximal at 0.056 µM (EC50) and the RARα/RARβ ratio is reported as 8. Moreover, in assay [3], the EC50 was found to be 0.018 µM and the RARγ/RARβ ratio was determined as 2.4.
For `Cc1cc(-c2noc(-c3nc4c(C)ccc(C)c4o3)n2)ccc1C(=O)O` [BHBA-025, 4-(5-(4,7-Dimethylbenzo[d]oxazol-2-yl)-1,2,4-oxadiazol-3-yl)-2-methylbenzoic acid], the EC50 turned out to be 0.041 µM in assay [1], 0.15 µM in assay [2] and 0.14 µM in assay [3].
For the molecule `Cc1ccc(C)c2oc(-c3nc(-c4ccc(C(=O)O)cc4Cl)no3)nc12` [BHBA-024, 3-Chloro-4-(5-(4,7-dimethylbenzo[d]oxazol-2-yl)-1,2,4-oxadiazol-3-yl)benzoic acid], the EC50 in assay [1] came to 0.024 µM. In addition, in assay [2], the midpoint of the response, the EC50, lay at 0.18 µM and the RARα/RARβ ratio was 7.5. Moreover, in assay [3], it took 0.047 µM to reach a half-maximal effect (EC50) and the RARγ/RARβ ratio is 2.
For `Cc1cc(C(=O)O)ccc1-c1nnc(-c2cc3c(C)ccc(C)c3o2)o1` [BHBA-035, 4-(5-(4,7-Dimethylbenzofuran-2-yl)-1,3,4-oxadiazol-2-yl)-3-methylbenzoic acid], a half-maximal response in assay [1] (EC50) required 0.067 µM. Besides, in assay [2], the EC50 is 0.091 µM and the RARα/RARβ ratio was determined as 1.3. Besides, in assay [3], it took 0.083 µM to reach a half-maximal effect (EC50) and the RARγ/RARβ ratio is reported as 1.2.
`Cc1ccc(C)c2sc(-c3nc(-c4ccc(C(=O)O)cc4)no3)cc12` [BHBA-021, 4-(5-(4,7-Dimethylbenzo[b]thiophen-2-yl)-1,2,4-oxadiazol-3-yl)benzoic acid]: the EC50 in assay [1] stood at 0.0034 µM. For the same molecule, in assay [2], the EC50 stood at 0.03 µM and the RARα/RARβ ratio turned out to be 9. Besides, in assay [3], the midpoint of the response, the EC50, lay at 0.0063 µM and the RARγ/RARβ ratio stood at 2.
Regarding `Cc1ccc(C)c2c(C)c(-c3nc(-c4ccc(C(=O)O)cc4)no3)oc12` [BHBA-008, 4-(5-(3,4,7-Trimethylbenzofuran-2-yl)-1,2,4-oxadiazol-3-yl)benzoic acid], the EC50 in assay [1] amounted to 0.0019 µM; in assay [2] it was 0.017 µM; in assay [3], 0.0068 µM.
With `Cc1ccc(Cl)c2cc(-c3nc(-c4ccc(C(=O)O)cc4Cl)no3)oc12` [BHBA-018, 3-Chloro-4-(5-(4-chloro-7-methylbenzofuran-2-yl)-1,2,4-oxadiazol-3-yl)benzoic acid], the EC50 was 0.041 µM in assay [1], 0.15 µM in assay [2] and 0.14 µM in assay [3].
In assay [1], `Cc1ccc(C)c2sc(-c3nc(-c4ccc(C(=O)O)cc4Cl)no3)cc12` [BHBA-022, 3-Chloro-4-(5-(4,7-dimethylbenzo[b]thiophen-2-yl)-1,2,4-oxadiazol-3-yl)benzoic acid] returned an EC50 of 0.016 µM. Besides, in assay [2], the EC50 amounted to 0.077 µM and the RARα/RARβ ratio turned out to be 5. In assay [3], a half-maximal effect (EC50) was put at 0.018 µM and the RARγ/RARβ ratio was determined as 1.1.
Take `Cc1ccc(C)c2oc(-c3nc(-c4ccc(C(=O)O)c(F)c4)ns3)cc12` [BHBA-041, 4-(5-(4,7-Dimethylbenzofuran-2-yl)-1,2,4-thiadiazol-3-yl)-2-fluorobenzoic acid]: the EC50 worked out at 0.0043 µM in assay [1], 0.02 µM in assay [2] and 0.0047 µM in assay [3]. The RARα/RARβ ratio in assay [2] is 4.6. In addition, in assay [3], the RARγ/RARβ ratio is on record as 1.0.
In turn, `Cc1ccc(C)c2oc(-c3nsc(-c4ccc(C(=O)O)cc4)n3)cc12` [BHBA-042, 4-(3-(4,7-Dimethylbenzofuran-2-yl)-1,2,4-thiadiazol-5-yl)benzoic acid] came in with an EC50 in assay [1] of 0.0031 µM. In assay [2], the EC50 came to 0.0094 µM and the RARα/RARβ ratio worked out at 3. For the same molecule, in assay [3], the EC50 was determined as 0.0023 µM and the RARγ/RARβ ratio is reported as 0.74.
`Cc1cc(C(=O)O)ccc1-c1nc(-c2cc3c(C)ccc(C)c3o2)no1` [BHBA-029, 4-(3-(4,7-Dimethylbenzofuran-2-yl)-1,2,4-oxadiazol-5-yl)-3-methylbenzoic acid]: the EC50 in assay [1] is 0.014 µM. In assay [2], a half-maximal effect (EC50) was put at 0.21 µM and the RARα/RARβ ratio stood at 15. In assay [3], the EC50 worked out at 0.019 µM and the RARγ/RARβ ratio amounted to 1.3.
In assay [1], `Cc1ccc(C)c2oc(-c3nc(-c4ccc(C(=O)O)cc4Br)no3)cc12` [BHBA-003, 3-Bromo-4-(5-(4,7-dimethylbenzofuran-2-yl)-1,2,4-oxadiazol-3-yl)benzoic acid] displayed an EC50 of 0.016 µM. Moreover, in assay [2], the midpoint of the response, the EC50, lay at 0.16 µM and the RARα/RARβ ratio came out at 10. In addition, in assay [3], the EC50 amounted to 0.036 µM and the RARγ/RARβ ratio is 2.
The matching figures for `Cc1ccc(C)c2oc(-c3noc(-c4ccc(C(=O)O)c(F)c4)n3)cc12` [BHBA-033, 4-(3-(4,7-Dimethylbenzofuran-2-yl)-1,2,4-oxadiazol-5-yl)-2-fluorobenzoic acid]: 0.013 µM, 0.045 µM, 3.5, 0.023 µM and 1.8.
On to `Cc1ccc(C)c2oc(-c3nc(-c4ccc(C(=O)O)c(F)c4)no3)nc12` [BHBA-026, 4-(5-(4,7-Dimethylbenzo[d]oxazol-2-yl)-1,2,4-oxadiazol-3-yl)-2-fluorobenzoic acid], for which the EC50 in assay [1] was 0.013 µM; in assay [2], 0.047 µM; in assay [3], 0.077 µM.
Molecule `Cc1ccc(C)c2oc(-c3noc(-c4ccc(C(=O)O)cc4)n3)cc12` [BHBA-028, 4-(3-(4,7-Dimethylbenzofuran-2-yl)-1,2,4-oxadiazol-5-yl)benzoic acid] gave an EC50 in assay [1] of 0.0082 µM. For the same molecule, in assay [2], the EC50 is 0.026 µM and the RARα/RARβ ratio is recorded as 3. Moreover, in assay [3], a half-maximal response (EC50) required 0.0083 µM and the RARγ/RARβ ratio stood at 1.
Take `Cc1ccc(C)c2oc(-c3nc(-c4ccc(C(=O)O)cc4N)no3)cc12` [BHBA-005, 3-Amino-4-(5-(4,7-dimethylbenzofuran-2-yl)-1,2,4-oxadiazol-3-yl)benzoic acid]: the EC50 in assay [1] stood at 0.023 µM; in assay [2], 0.13 µM; in assay [3], 0.055 µM. Also, the RARα/RARβ ratio in assay [2] was found to be 5. Moreover, the RARγ/RARβ ratio in assay [3] is listed as 2.
On to `Cc1ccc(C)c2oc(-c3nnc(-c4ccc(C(=O)O)cc4)o3)cc12` [BHBA-034, 4-(5-(4,7-Dimethylbenzofuran-2-yl)-1,3,4-oxadiazol-2-yl)benzoic acid], for which the response in assay [1] was half-maximal at 0.02 µM (EC50). In assay [2], the EC50 worked out at 0.092 µM and the RARα/RARβ ratio came to 4.6. For the same molecule, in assay [3], the EC50 came out at 0.058 µM and the RARγ/RARβ ratio is 2.9.
For `Cc1cc(-c2nsc(-c3cc4c(C)ccc(C)c4o3)n2)ccc1C(=O)O` [BHBA-040, 4-(5-(4,7-Dimethylbenzofuran-2-yl)-1,2,4-thiadiazol-3-yl)-2-methylbenzoic acid], the EC50 came out at 0.011 µM in assay [1], 0.072 µM in assay [2] and 0.13 µM in assay [3].
In turn, `Cc1ccc(C(C)C)c2cc(-c3nc(-c4ccc(C(=O)O)cc4)no3)oc12` [BHBA-010, 4-(5-(4-Isopropyl-7-methylbenzofuran-2-yl)-1,2,4-oxadazol-3-yl)benzoic acid] returned an EC50 in assay [1] of 0.0029 µM. Moreover, in assay [2], a half-maximal effect (EC50) was put at 0.025 µM and the RARα/RARβ ratio is 8. For the same molecule, in assay [3], the EC50 came to 0.00053 µM and the RARγ/RARβ ratio was determined as 0.18.
In assay [3], `Cc1ccc(C)c2oc(-c3nc(-c4ccc(C(=O)O)cc4)no3)nc12` [BHBA-023, 4-(5-(4,7-Dimethylbenzo[d]oxazol-2-yl)-1,2,4-oxadiazol-3-yl)benzoic acid] gave an EC50 of 0.083 µM.
